We go through eleven compounds from ChEMBL document CHEMBL1201862, “PubChem BioAssay data set” (2004).

One may read the GI50 as the concentration that inhibits growth by half.

Test systems include SN12C; T47D; ACHN; HCT-116; SW-620; RXF 393; PC-3; NCI-H23; DU-145; HL-60; NCI-H226; SF-268; LOX IMVI; COLO 205; HOP-92; OVCAR-4; U-251; K562; MOLT-4; MDA-MB-231.
Holding throughout (assay): DTP human tumour cell line panel, 48 h

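Following 48 hours of exposure in 96-well plates, responses at five concentrations were used to interpolate endpoints linearly. GI50 marks 50% less growth.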 Active and inactive are the calls of the source. No stated cut-off is given here; in the data, active = GI50 up to about 1.1 µM and inactive = higher. Some results are limits rather than exact numbers.

`Cc1ccnc(NS(=O)(=O)c2ccc(N=[N+]=[N-])cc2)n1`: the GI50 in the assay with SN12C, with T47D, with ACHN, with HCT-116, with SW-620 and in the assay on RXF 393 was > 100 µM (inactive) each time. Besides, the GI50 was > 100 µM (inactive) in the assay on PC-3; > 100 µM (inactive) in the assay with NCI-H23; > 100 µM (inactive) in the assay with DU-145; > 46.9 µM (inactive) in the assay on HL-60; > 100 µM (inactive) with NCI-H226; > 100 µM (inactive) in the assay on SF-268. Moreover, the GI50 in the assay on LOX IMVI, in the assay with COLO 205, in the assay on HOP-92, with OVCAR-4 and with U-251 was > 100 µM (inactive) in each case.
As for `CCCCCCC(CCl)c1sc(-c2csc(CCNC(=O)OC(C)(C)C)n2)nc1C(=O)OC` (centres undefined), the GI50 was 19.2 µM (inactive) in the assay on SN12C; 3.53 µM (inactive) with T47D; 23.3 µM (inactive) with ACHN; 15.5 µM (inactive) with HCT-116; 36 µM (inactive) in the assay on SW-620; 13.5 µM (inactive) in the assay with K562. Moreover, the GI50 in the assay on PC-3 was 15.9 µM (inactive); in the assay with NCI-H23, 15.3 µM (inactive); with MOLT-4, 4.58 µM (inactive); in the assay with DU-145, 33.7 µM (inactive); in the assay with MDA-MB-231 it was 26.9 µM (inactive); with HL-60, 17.3 µM (inactive). Moreover, the GI50 in the assay on SF-268 is 20.3 µM (inactive); in the assay on LOX IMVI, 13.2 µM (inactive); in the assay on COLO 205 it was 35.6 µM (inactive); with HOP-92, 40.8 µM (inactive); in the assay with OVCAR-4, 9.98 µM (inactive); with U-251 it was 16.2 µM (inactive).
With `COc1ccc(CNc2nc(NCc3ccc(OC)cc3)nc(NC(C)C)n2)cc1`, the GI50 in the assay on T47D is 43.6 µM (inactive); with ACHN it was 8.02 µM (inactive); in the assay on HCT-116 it was 3.18 µM (inactive); in the assay on SW-620, 4.22 µM (inactive); in the assay with K562, 6.98 µM (inactive); with RXF 393, 7.08 µM (inactive). The GI50 with PC-3 was 3.3 µM (inactive); with NCI-H23, 5.21 µM (inactive); with MOLT-4, 42.7 µM (inactive); with DU-145 it was 19.2 µM (inactive); with HL-60 it was 4.08 µM (inactive); in the assay on SF-268, 9.02 µM (inactive). The GI50 in the assay with LOX IMVI is 6.89 µM (inactive); in the assay on COLO 205, 9.57 µM (inactive); with HOP-92 it was 3.37 µM (inactive); in the assay with OVCAR-4, 20.3 µM (inactive); in the assay on U-251, 7.52 µM (inactive).
`Cc1cc2ncc3c(=O)n(NS(=O)(=O)c4ccc(N)cc4)ccc3n2n1`: the GI50 in the assay with SN12C, in the assay with T47D, with ACHN, with HCT-116, with SW-620 and in the assay on PC-3 was > 100 µM (inactive) each time. The GI50 with NCI-H23, in the assay on MOLT-4, in the assay on DU-145, in the assay on MDA-MB-231, in the assay with HL-60 and with NCI-H226 was > 100 µM (inactive) in each case. Also, the GI50 in the assay on SF-268 was > 100 µM (inactive); in the assay on LOX IMVI it was > 100 µM (inactive); in the assay with COLO 205, > 100 µM (inactive); in the assay on HOP-92, 54.2 µM (inactive); with OVCAR-4, > 100 µM (inactive); in the assay on U-251, > 100 µM (inactive).
Regarding `CCCCN(CCCC)CCC(O)c1cc(-c2ccc(C(F)(F)F)cc2)nc(-c2ccc(C(F)(F)F)cc2)c1` (centres undefined), the GI50 in the assay on SN12C, in the assay with T47D, in the assay on ACHN, in the assay on HCT-116, with SW-620 and with K562 was > 100 µM (inactive) throughout. The GI50 in the assay with PC-3, in the assay with NCI-H23, in the assay on MOLT-4, in the assay with DU-145, with MDA-MB-231 and with HL-60 was > 100 µM (inactive) each time. Moreover, the GI50 with SF-268, with LOX IMVI, in the assay on COLO 205, in the assay with HOP-92, with OVCAR-4 and with U-251 was > 100 µM (inactive) throughout.
On to `COc1ccc2c(c1)OCC1Cc3cccc(OC)c3OC21` (centres undefined), for which the GI50 in the assay with SN12C is > 100 µM (inactive); in the assay with T47D, 30.1 µM (inactive); in the assay with HCT-116, 45.1 µM (inactive); in the assay on SW-620, 60.3 µM (inactive); with PC-3 it was 35.6 µM (inactive); in the assay on NCI-H23 it was 58.3 µM (inactive). In addition, the GI50 is 28 µM (inactive) in the assay with MOLT-4; > 100 µM (inactive) with DU-145; 60.7 µM (inactive) in the assay on MDA-MB-231; 67.3 µM (inactive) in the assay with NCI-H226; > 100 µM (inactive) with SF-268; 45.5 µM (inactive) in the assay with LOX IMVI. The GI50 in the assay with COLO 205 is 41.6 µM (inactive); in the assay on HOP-92, > 100 µM (inactive); in the assay on U-251, > 100 µM (inactive).
As for `Cc1c(-c2ccc(O)c(O)c2)oc(=O)c2c(O)cccc12`, the GI50 in the assay with SN12C is 5.27 µM (inactive); with T47D it was 1.55 µM (inactive); with ACHN it was 20 µM (inactive); in the assay with HCT-116, 6.56 µM (inactive); in the assay on SW-620 it was 12.2 µM (inactive); in the assay on K562, 4.85 µM (inactive). Also, the GI50 was 12.4 µM (inactive) in the assay with RXF 393; 12.9 µM (inactive) in the assay on PC-3; 10.3 µM (inactive) in the assay with NCI-H23; 3.02 µM (inactive) in the assay on MOLT-4; 14.4 µM (inactive) with DU-145; 3.88 µM (inactive) in the assay with HL-60. For the same compound, the GI50 in the assay on SF-268 is 9.1 µM (inactive); in the assay with COLO 205, 9.71 µM (inactive); in the assay on HOP-92, 16.3 µM (inactive); in the assay with OVCAR-4, 11.7 µM (inactive); in the assay with U-251 it was 12.1 µM (inactive).
`COC(=O)[C@@]12CCCC(=O)[C@@H]1[C@H]1CCC[C@H]12`: the GI50 in the assay with SN12C, with ACHN, with HCT-116, in the assay with SW-620, with K562 and with RXF 393 was > 100 µM (inactive) each time. For the same compound, the GI50 in the assay on PC-3, in the assay with NCI-H23, in the assay with MOLT-4, in the assay with DU-145, with MDA-MB-231 and in the assay with NCI-H226 was > 100 µM (inactive) in each case. The GI50 in the assay on SF-268, in the assay with LOX IMVI, in the assay on COLO 205, in the assay on HOP-92, in the assay with OVCAR-4 and in the assay with U-251 was > 100 µM (inactive) throughout.
Regarding `CO/N=C(\C(=O)Nn1cn[n+](CC(=O)[O-])c1)c1csc(N)n1`, the GI50 with SN12C, in the assay with T47D, in the assay with ACHN, with HCT-116, in the assay with SW-620 and in the assay with K562 was > 10 µM (inactive) each time. For the same compound, the GI50 in the assay with NCI-H23, with MOLT-4, in the assay on DU-145, in the assay with MDA-MB-231, in the assay on HL-60 and with SF-268 was > 10 µM (inactive) throughout. Moreover, the GI50 in the assay with LOX IMVI, with COLO 205, in the assay with HOP-92 and in the assay with OVCAR-4 was > 10 µM (inactive) each time.
As for `CC(=O)Oc1ccc2[nH]c3c(C)c4cccc-4ccc3c2c1`, the GI50 in the assay with SN12C is 2.47 µM (inactive); with T47D, 2.43 µM (inactive); in the assay with ACHN, 1.79 µM (inactive); in the assay on HCT-116 it was 2.07 µM (inactive); in the assay on SW-620, 3.7 µM (inactive); with K562, 3.79 µM (inactive). Besides, the GI50 was 1.82 µM (inactive) in the assay on RXF 393; 1.87 µM (inactive) with PC-3; 1.99 µM (inactive) with NCI-H23; 3.13 µM (inactive) in the assay with MOLT-4; 3.27 µM (inactive) in the assay with DU-145; 2.72 µM (inactive) with HL-60. Also, the GI50 with NCI-H226 is 1.38 µM (inactive); in the assay with SF-268, 2.02 µM (inactive); with LOX IMVI it was 2.18 µM (inactive); with HOP-92, 2.12 µM (inactive); in the assay with OVCAR-4, 1.84 µM (inactive).
Regarding `CC(C)(O)CCc1ccc(O)c2c(=O)c3c(O)c4c(cc3oc12)O[C@H]1OC=C[C@@]41O` [AUSTOCYSTIN D], the GI50 in the assay with SN12C was 8.69 µM (inactive); with ACHN, < 0.01 µM (active); in the assay on HCT-116, 0.0199 µM (active); in the assay with SW-620 it was < 0.01 µM (active); in the assay on K562, 20 µM (inactive); in the assay on RXF 393, 0.148 µM (active). Further, the GI50 was 0.119 µM (active) in the assay on PC-3; < 0.01 µM (active) in the assay with NCI-H23; < 0.0106 µM (active) with MOLT-4; < 0.01 µM (active) in the assay with DU-145; 2.26 µM (inactive) in the assay with MDA-MB-231; < 0.01 µM (active) in the assay on NCI-H226. Besides, the concentration for 50% growth inhibition (GI50) was 0.056 µM (active) in the assay on SF-268; 9.31 µM (inactive) in the assay with LOX IMVI; 0.0109 µM (active) in the assay with COLO 205; 0.251 µM (active) with HOP-92; < 0.01 µM (active) in the assay with OVCAR-4; < 0.01 µM (active) in the assay with U-251.
